Data as given in PubChem BioAssay (NCI).
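Assay format: 96-well plates, 48-hour exposure. Definition used: TGI = concentration required for complete inhibition of growth.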

Legend:
Assay in all cases: NCI-60 cell line screen, 48 h
786-0 renal = test system: 786-0 renal
A498 renal = test system: A498 renal
A549 NSCLC = test system: A549 NSCLC
ACHN renal = test system: ACHN renal
BT-549 breast = test system: BT-549 breast
CAKI-1 renal = test system: CAKI-1 renal
CCRF-CEM leukemia = test system: CCRF-CEM leukemia
COLO 205 colon = test system: COLO 205 colon
DU-145 prostate = test system: DU-145 prostate
EKVX NSCLC = test system: EKVX NSCLC
HCC-2998 colon = test system: HCC-2998 colon
HCT-116 colon = test system: HCT-116 colon
HCT-15 colon = test system: HCT-15 colon
HL-60(TB) leukemia = test system: HL-60(TB) leukemia
HOP-62 NSCLC = test system: HOP-62 NSCLC
HOP-92 NSCLC = test system: HOP-92 NSCLC
HS 578T breast = test system: HS 578T breast
HT29 colon = test system: HT29 colon
IGROV1 ovarian = test system: IGROV1 ovarian
K-562 leukemia = test system: K-562 leukemia
KM12 colon = test system: KM12 colon
LOX IMVI melanoma = test system: LOX IMVI melanoma
M14 melanoma = test system: M14 melanoma
MALME-3M melanoma = test system: MALME-3M melanoma
MCF7 breast = test system: MCF7 breast
MDA-MB-231 breast = test system: MDA-MB-231 breast
MDA-MB-435 = test system: MDA-MB-435
MDA-N = test system: MDA-N
MOLT-4 leukemia = test system: MOLT-4 leukemia
NCI-H226 lung = test system: NCI-H226 lung
NCI-H23 lung = test system: NCI-H23 lung
NCI-H460 lung = test system: NCI-H460 lung
NCI-H522 lung = test system: NCI-H522 lung
NCI/ADR-RES ovarian = test system: NCI/ADR-RES ovarian
OVCAR-3 ovarian = test system: OVCAR-3 ovarian
OVCAR-4 ovarian = test system: OVCAR-4 ovarian
OVCAR-5 ovarian = test system: OVCAR-5 ovarian
OVCAR-8 ovarian = test system: OVCAR-8 ovarian
PC-3 prostate = test system: PC-3 prostate
RPMI-8226 leukemia = test system: RPMI-8226 leukemia
RXF 393 renal = test system: RXF 393 renal
SF-268 CNS = test system: SF-268 CNS
SF-295 CNS = test system: SF-295 CNS
SF-539 CNS = test system: SF-539 CNS
SK-MEL-2 melanoma = test system: SK-MEL-2 melanoma
SK-MEL-28 melanoma = test system: SK-MEL-28 melanoma
SK-MEL-5 melanoma = test system: SK-MEL-5 melanoma
SK-OV-3 ovarian = test system: SK-OV-3 ovarian
SN12C renal = test system: SN12C renal
SNB-19 CNS = test system: SNB-19 CNS
SNB-75 CNS = test system: SNB-75 CNS
SR leukemia = test system: SR leukemia
SW-620 colon = test system: SW-620 colon
T-47D breast = test system: T-47D breast
TK-10 renal = test system: TK-10 renal
U251 CNS = test system: U251 CNS
UACC-257 melanoma = test system: UACC-257 melanoma
UACC-62 melanoma = test system: UACC-62 melanoma
UO-31 renal = test system: UO-31 renal

CCCCCc1cc(CCCC)sc1-c1ccco1
TGI (786-0 renal): > 100 µM | TGI (A498 renal): > 100 µM | TGI (A549 NSCLC): > 100 µM | TGI (ACHN renal): > 100 µM | TGI (BT-549 breast): > 100 µM | TGI (CAKI-1 renal): > 100 µM | TGI (CCRF-CEM leukemia): > 75 µM | TGI (COLO 205 colon): > 100 µM | TGI (DU-145 prostate): > 100 µM | TGI (EKVX NSCLC): > 100 µM | TGI (HCC-2998 colon): > 100 µM | TGI (HCT-116 colon): > 73 µM | TGI (HCT-15 colon): > 100 µM | TGI (HL-60(TB) leukemia): 58.8 µM | TGI (HOP-62 NSCLC): > 100 µM | TGI (HOP-92 NSCLC): > 100 µM | TGI (HS 578T breast): > 100 µM | TGI (HT29 colon): > 100 µM | TGI (IGROV1 ovarian): > 100 µM | TGI (K-562 leukemia): > 100 µM | TGI (KM12 colon): > 100 µM | TGI (LOX IMVI melanoma): > 100 µM | TGI (M14 melanoma): > 100 µM | TGI (MALME-3M melanoma): > 100 µM | TGI (MCF7 breast): > 100 µM | TGI (MDA-MB-231 breast): > 100 µM | TGI (MDA-MB-435): > 100 µM | TGI (MDA-N): > 100 µM | TGI (MOLT-4 leukemia): > 100 µM | TGI (NCI-H226 lung): > 100 µM | TGI (NCI-H23 lung): > 100 µM | TGI (NCI-H460 lung): > 100 µM | TGI (NCI-H522 lung): > 100 µM | TGI (NCI/ADR-RES ovarian): > 100 µM | TGI (OVCAR-3 ovarian): > 100 µM | TGI (OVCAR-4 ovarian): > 100 µM | TGI (OVCAR-5 ovarian): > 100 µM | TGI (OVCAR-8 ovarian): > 100 µM | TGI (PC-3 prostate): > 100 µM | TGI (RPMI-8226 leukemia): > 100 µM | TGI (RXF 393 renal): > 100 µM | TGI (SF-268 CNS): > 100 µM | TGI (SF-295 CNS): > 100 µM | TGI (SF-539 CNS): > 100 µM | TGI (SK-MEL-2 melanoma): > 100 µM | TGI (SK-MEL-28 melanoma): > 100 µM | TGI (SK-MEL-5 melanoma): > 100 µM | TGI (SK-OV-3 ovarian): > 100 µM | TGI (SN12C renal): > 100 µM | TGI (SNB-19 CNS): > 100 µM | TGI (SNB-75 CNS): > 100 µM | TGI (SR leukemia): > 100 µM | TGI (SW-620 colon): > 100 µM | TGI (T-47D breast): > 100 µM | TGI (TK-10 renal): > 100 µM | TGI (U251 CNS): > 100 µM | TGI (UACC-257 melanoma): > 100 µM | TGI (UACC-62 melanoma): > 100 µM | TGI (UO-31 renal): > 100 µM
